The target of one assay is T1, αvβ5 integrin (Homo sapiens, UniProt P06756+P18084).
T1 construct: chimeras comprising the extracellular domain of αvβ3, αvβ5, α5β1, and αIIbβ3 linked to the Fc domain of either mouse IgG; purchased Celltech plc (supplied, no catalogue number); host or cells: unpurified hybridoma / tissue culture supernatant from secreting cells
Nature of the assay: ELISA: biotinylated vitronectin binding to captured soluble αvβ5-mFc in the presence of RGD peptides. The note with it: 20 μM peptide; 100% = signal without peptide. An excerpt:
(§1) Four different soluble integrins were supplied by Celltech plc. Soluble forms of αvβ3, αvβ5, α5β1, and αIIbβ3 integrin were generated by constructing chimeras comprising the extracellular domain of αvβ3, αvβ5, α5β1, and αIIbβ3 linked to the Fc domain of either mouse IgG (αvβ3-mFc, αvβ5-mFc, and αIIbβ3-mFc) or human IgG (α5β1-hFc) as described by Stephens et al., Cell Adhes. Commun., 7:377-390 (2000) and Coe et al., J. Biol. Chem., 276:35854-35866 (2001). Since the four soluble integrin chimeras were supplied either as purified proteins (αvβ3-mFc and α5β1-hFc) or as unpurified hybridoma supernatants (αIIbβ3-mFc and αvβ5-mFc), it was necessary to use two types of ELISAs. […] In one type of ELISA (FIGS. 2A and 2B), the immobilized component is a 50 kDa fragment of fibronectin. In the second type of ELISA (FIGS. 2C and 2D), the immobilized component is a goat anti-mFc antibody that is used to capture chimeric proteins so that the RGD binding site of the integrin is maximally exposed. Each three-sided box in FIG. 2 represents a single well of a 96-well plate, and the components are listed in the sequence of their addition to the assay. The immobilized component at the bottom of the well is bound to the well by electrostatic interactions.
To analyze the affinity and selectively of RGD peptides for αIIbβ3 and αvβ5, 96-well ELISA plates were coated with anti-murine Fc antibody at 5 μg/ml in PBS, 100 μl per well and left overnight at 4° C. The plates were washed with PBS using a Denley Wellwash 4 Mk 2. Washing was repeated twice with a 400 μl wash per well. 200 μl/well of blocking buffer was then added for 1 hour followed by a repeat washing with PBS. 100 μl of tissue culture supernatant from cells secreting soluble αIIbβ3-mFc or αvβ5-mFc, diluted 1:2 in conjugate buffer, was added to each well. Plates were incubated with shaking for 1 hour followed by two washes with PBS. 100 μl of an RGD peptide (at concentrations of 200, 20, and 2 μM), followed by either 100 μl of biotinylated fibrinogen (at 1 μg/ml in conjugate buffer) or 100 μl of biotinylated vitronectin (at 2 μg/ml in conjugate buffer) were added to each well and incubated for 2 hours with shaking. After incubation, the plates were washed with PBS as described above. 100 μl of neutravidin-peroxidase was added to each well and the plates were incubated for 30 minutes with shaking, followed by two washes with PBS. 100 μl of TMB substrate was added to each well and the plates were shaken during color development. Plates were read using a plate spectrophotometer at 630 nm.
Two negative and two positive controls were used in both types of ELISAs. For example, the negative controls were wells that contained 50 μl of an active control peptide, integrin, and biotinylated ligand or 50 μl of the active control peptide and 50 μl of buffer. These negative control wells typically develop little to no color. […] These wells typically develop the maximum amount of color.
(§2) FIGS. 3-6 illustrate the percent binding of the vitronectin, fibronectin, or fibrinogen ligand to αvβ5, α5β1, αIIbβ3, or αvβ3 integrin in the presence of RGD peptides (i.e., linear (A), cyclic (B), or 4-[^19F]-fluorobenzoyl cyclic (C)) at different concentrations, with 100% maximum signal being the signal obtained in the absence of the peptide.
On the technique in general: ELISA stands for enzyme-linked immunosorbent assay.

Another assay has as its target T2, αvβ3 integrin (Homo sapiens, UniProt P05106+P06756).
T2 construct: chimeras comprising the extracellular domain of αvβ3, αvβ5, α5β1, and αIIbβ3 linked to the Fc domain of either mouse IgG; purchased Celltech plc (supplied, no catalogue number)
As to the kind of experiment: ELISA: soluble αvβ3-mFc binding to immobilized 50 kDa fibronectin fragment in the presence of RGD peptides. The settings on record: 2 μM peptide.
From the text: as §1
The plates were washed with PBS using a Denley Wellwash 4 Mk 2. Washing was repeated twice with a 400 μl wash per well. […] Plates were read using a plate spectrophotometer at 630 nm.
Two negative and two positive controls were used in both types of ELISAs.
as §2

The test system of assay [1] is A375M melanoma cell line. As to the kind of experiment: Adhesion assay: [51Cr]-A375M cells to vitronectin. It counts as cell-based, human. The note with it: 20 μM peptide. On the procedure:
(§3) RGD peptides were plated at a maximum concentration of 200 μM and a minimum concentration of 2 nM. For each RGD peptide sequence, linear peptides (A), cyclic peptides (B), and 4-[^19F]-fluorobenzoyl cyclic peptides (C) were assayed. Each RGD peptide concentration was performed in quadruplicate and each experiment was repeated twice.
(§4) Plastic 96-well plates (Falcon 3912; Becton Dickinson) were coated with 50 μl substrate (10 μg/ml laminin or 5 μg/ml vitronectin). The plates were incubated at 37° C. in an 8% CO2 atmosphere for 1 hour. Unbound protein was flicked off and the plates were washed with phosphate buffered saline (PBS) and blocked with bovine serum albumin (0.1% w/v BSA)/PBS/0.1% sodium azide) for 1 hour. The plates were then washed with PBS, placed on a bed of ice and 25 μl of peptide was added to the wells.
Sodium [^51Cr] chromate was purchased from Amersham International, UK. […]
25 μl (about 10,000 cells) were added to each quadruplicate well and the plates incubated at 37° C. in an 8% CO2 atmosphere for 1 hour. […] The radioactivity associated with each well was determined in a gamma counter (1261 Multigamma; Wallac, Sweden). Quadruplicate 25 μl samples of labeled cells were counted as 100% input values. To determine non-specific binding, the ability of cells to bind BSA-coated wells was also assessed. […]
(§5) The results were calculated as follows: [formula] […]

A further assay has as its system VUP melanoma cell line. Nature of the assay: Adhesion assay: [51Cr]-VUP cells to laminin. It counts as cell-based. The note with it: highest concentration (200 μM). On the procedure:
as §3, §4
(§6) Sodium [^51Cr] chromate was purchased from Amersham International, UK. The solution was made isotonic by the addition of 110 μl 10× Hanks buffered salt solution. 100 μl of this solution (3.7 MBq) was added to 5-10×10^6 cells in 500 μl of serum-containing growth medium. The suspension was incubated at 37° C. for 45 minutes with regular agitation to resuspend the cells. The cells were then washed and spun 3 times with serum-free E4 medium to remove any free [^51Cr]chromium. A trypan blue viability count was performed and the cells were diluted to the necessary volume in serum-free E4 medium (4×10^5 cells/ml).
25 μl (about 10,000 cells) were added to each quadruplicate well and the plates incubated at 37° C. in an 8% CO2 atmosphere for 1 hour. Unbound cells were flicked off and the plates were washed twice with PBS/BSA containing 1 mM CaCl2 and 0.5 mM MgCl2. The plates were dabbed dry and cut into individual wells. The radioactivity associated with each well was determined in a gamma counter (1261 Multigamma; Wallac, Sweden). Quadruplicate 25 μl samples of labeled cells were counted as 100% input values. To determine non-specific binding, the ability of cells to bind BSA-coated wells was also assessed. […]
as §5

Assay [2] relates to A375M melanoma cell line. As to the kind of experiment: Adhesion assay: [51Cr]-A375M cells to laminin. It counts as cell-based, human. The note with it: 200 μM peptide. As to the method: as §3, §4, §6
25 μl (about 10,000 cells) were added to each quadruplicate well and the plates incubated at 37° C. in an 8% CO2 atmosphere for 1 hour. Unbound cells were flicked off and the plates were washed twice with PBS/BSA containing 1 mM CaCl2 and 0.5 mM MgCl2. The plates were dabbed dry and cut into individual wells. The radioactivity associated with each well was determined in a gamma counter (1261 Multigamma; Wallac, Sweden). Quadruplicate 25 μl samples of labeled cells were counted as 100% input values. To determine non-specific binding, the ability of cells to bind BSA-coated wells was also assessed. Data for these wells are referred to as background.
The results were calculated as follows: [formula] [formula] NMR Spectroscopy of RGD Peptides
The A375M and VUP melanoma cell lines were used with vitronectin and laminin as substrates. Peptides were titrated in 10-fold dilutions from 200 μM to 2 nM. All data were normalized to the absence of peptide, which corresponded to 100% adhesion. All titrations were performed in quadruplicate and each experiment was repeated at least twice.

T1 sequence (P06756 31-992 limits assumed): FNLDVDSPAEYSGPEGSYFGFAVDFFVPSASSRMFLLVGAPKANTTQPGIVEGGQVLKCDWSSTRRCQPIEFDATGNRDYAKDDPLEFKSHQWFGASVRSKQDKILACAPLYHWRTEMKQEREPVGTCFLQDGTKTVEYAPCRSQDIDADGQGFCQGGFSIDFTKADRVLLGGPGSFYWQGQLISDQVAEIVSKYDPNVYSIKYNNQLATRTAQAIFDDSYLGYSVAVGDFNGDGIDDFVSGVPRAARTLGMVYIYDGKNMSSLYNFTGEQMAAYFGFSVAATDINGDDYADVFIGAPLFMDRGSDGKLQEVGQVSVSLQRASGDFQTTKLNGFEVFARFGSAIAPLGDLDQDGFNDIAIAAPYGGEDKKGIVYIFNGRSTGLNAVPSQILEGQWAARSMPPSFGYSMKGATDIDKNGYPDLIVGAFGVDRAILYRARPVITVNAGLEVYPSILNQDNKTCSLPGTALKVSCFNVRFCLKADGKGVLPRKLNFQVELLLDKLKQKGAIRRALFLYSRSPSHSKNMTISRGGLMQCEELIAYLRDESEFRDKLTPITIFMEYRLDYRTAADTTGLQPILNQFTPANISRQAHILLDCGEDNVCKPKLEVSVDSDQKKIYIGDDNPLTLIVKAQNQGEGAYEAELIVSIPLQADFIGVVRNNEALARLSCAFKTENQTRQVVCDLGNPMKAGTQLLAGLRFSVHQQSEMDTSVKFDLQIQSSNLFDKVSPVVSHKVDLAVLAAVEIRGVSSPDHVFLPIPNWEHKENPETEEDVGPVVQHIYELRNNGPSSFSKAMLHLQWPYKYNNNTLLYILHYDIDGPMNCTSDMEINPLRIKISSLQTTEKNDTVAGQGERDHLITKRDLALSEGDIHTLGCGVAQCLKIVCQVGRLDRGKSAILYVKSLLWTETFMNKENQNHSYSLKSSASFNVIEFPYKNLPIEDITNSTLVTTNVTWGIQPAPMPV
T1 sequence (P18084 24-719 limits assumed): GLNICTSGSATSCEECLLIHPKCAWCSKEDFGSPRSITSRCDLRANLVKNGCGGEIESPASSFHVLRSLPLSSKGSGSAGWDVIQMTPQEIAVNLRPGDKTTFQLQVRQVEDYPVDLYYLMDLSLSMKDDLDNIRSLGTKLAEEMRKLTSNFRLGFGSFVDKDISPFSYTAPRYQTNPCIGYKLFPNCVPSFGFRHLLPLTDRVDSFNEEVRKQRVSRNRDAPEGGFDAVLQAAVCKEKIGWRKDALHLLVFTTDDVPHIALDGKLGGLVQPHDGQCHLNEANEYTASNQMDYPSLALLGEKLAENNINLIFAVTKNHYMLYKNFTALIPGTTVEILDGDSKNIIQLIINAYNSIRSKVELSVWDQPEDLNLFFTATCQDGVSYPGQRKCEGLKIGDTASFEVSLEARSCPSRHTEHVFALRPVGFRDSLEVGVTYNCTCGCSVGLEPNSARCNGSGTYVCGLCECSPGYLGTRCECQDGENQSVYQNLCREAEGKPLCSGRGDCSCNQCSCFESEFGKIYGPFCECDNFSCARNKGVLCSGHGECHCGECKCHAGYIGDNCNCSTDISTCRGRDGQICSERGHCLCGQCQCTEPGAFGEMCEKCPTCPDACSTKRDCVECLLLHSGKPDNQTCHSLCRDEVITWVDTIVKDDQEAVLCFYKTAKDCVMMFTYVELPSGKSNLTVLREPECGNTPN
T2 sequence (P06756 31-992 limits assumed): as the sequence (P06756 31-992 limits assumed) above
T2 sequence (P05106 27-718 limits assumed): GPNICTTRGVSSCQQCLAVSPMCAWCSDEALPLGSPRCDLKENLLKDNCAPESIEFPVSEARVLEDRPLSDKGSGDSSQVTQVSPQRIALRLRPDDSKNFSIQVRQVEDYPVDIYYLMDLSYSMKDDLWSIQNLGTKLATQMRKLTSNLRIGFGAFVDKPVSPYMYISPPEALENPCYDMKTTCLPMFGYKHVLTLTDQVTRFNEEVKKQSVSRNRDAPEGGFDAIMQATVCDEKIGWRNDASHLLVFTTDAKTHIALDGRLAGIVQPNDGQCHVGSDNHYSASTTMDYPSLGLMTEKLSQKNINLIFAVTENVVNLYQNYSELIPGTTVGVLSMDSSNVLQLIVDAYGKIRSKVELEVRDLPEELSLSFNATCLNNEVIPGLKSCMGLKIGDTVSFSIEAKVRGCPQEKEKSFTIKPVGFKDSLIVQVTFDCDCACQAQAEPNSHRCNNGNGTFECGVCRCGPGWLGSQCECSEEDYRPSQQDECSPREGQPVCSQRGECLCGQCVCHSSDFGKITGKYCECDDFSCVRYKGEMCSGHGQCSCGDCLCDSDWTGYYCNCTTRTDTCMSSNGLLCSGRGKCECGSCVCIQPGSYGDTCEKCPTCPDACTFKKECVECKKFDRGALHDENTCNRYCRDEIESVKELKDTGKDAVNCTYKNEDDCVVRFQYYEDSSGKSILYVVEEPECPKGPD

As for RGDY(OMe)K [B7], at αvβ5 integrin, the “vitronectin binding to αvβ5, % of the maximum signal” value stood at 32.8%. Further, the “fibronectin binding to αvβ3, % of the maximum signal” value at αvβ3 integrin amounted to 6.6%. Moreover, the “adhesion of [51Cr]-A375M cells to vitronectin, normalized to absence of peptide (100%)” value with A375M melanoma cell line [1] is 72.79%±0.04%. Besides, the “adhesion of [51Cr]-VUP cells to laminin, normalized to absence of peptide (100%)” value in the assay on VUP melanoma cell line is on record as 46.89%±1.45%. Further, in the assay with A375M melanoma cell line [2], the “adhesion of [51Cr]-A375M cells to laminin, normalized to absence of peptide (100%)” value is given as 50.40%±1.24%.

Values taken from patent publication US20060029544A1, “Receptor-binding cyclic peptides and methods of use” (The Regents of the University of California Office of …, priority 2004, published 2006).
